{
  "source": "patent US8940310B2",
  "about": "“Methods of treatment using TLR7 and/or TLR9 inhibitors” (Dynavax Technologies Corporation, priority 2010, dated 2015)",
  "assay": "High dosages of IRPs in mice (weight, histology)",
  "assay_type": "in vivo, BALB/c mice",
  "conditions": "ISS control (5 mg/kg)",
  "method": "To test the activity of IRPs at high dosages in mice, IRPs or a control (saline) were subcutaneously administered to BALB/c mice at a dosage of 4 mg/kg, 20 mg/kg, 50 mg/kg, or 100 mg/kg on days 1, 4, 7, and 10 (n=5 per group). Mice were weighed prior to administration and on days 2, 4, 7, 9, and 11. Serum cytokines were assayed at two hours post the first and third injections and 24 hours post the fourth injection. Organs were harvested at the end of the study, and organ weights and tissues levels of the oligonucleotides were determined. In addition, histological evaluation of the liver, kidney, and heart was performed.\nMice were weighed prior to administration and on days 1, 3, 4, 6, 7, and 9. Organs were harvested at the end of the study, and organ weights and tissues levels of the oligonucleotides were determined. In addition, histological evaluation of the liver, kidney, and heart was performed.",
  "note": "Marks after values point to notes of the source that are not given here.",
  "data": [
    {"substance": "5′-TGACTGTGAACGTTCGAGATGA-3′ [SEQ ID NO:157, reference compound]", "values": [
      {"measurement": "Heart: Chronic inflammation, number of animals", "result": 2},
      {"measurement": "Heart: Mineralization, number of animals", "result": 1},
      {"measurement": "Heart: Chronic inflammation, mean severity score", "setting": "0 = no change to 4 = severe", "result": 2.0},
      {"measurement": "Heart: Mineralization, mean severity score", "setting": "0 = no change to 4 = severe", "result": 4.0},
      {"measurement": "Liver: Liver changes, mean severity score", "setting": "0 = no change to 4 = severe", "result": 2.0},
      {"measurement": "Liver: Mixed cell infiltration, mean severity score", "setting": "0 = no change to 4 = severe", "result": 3.0},
      {"measurement": "Right Kidney: Tubular basophilia, mean severity score", "setting": "0 = no change to 4 = severe", "result": 2.0},
      {"measurement": "Liver: Liver changes, number of animals", "setting": "6 animals", "result": 6},
      {"measurement": "Liver: Mixed cell infiltration, number of animals", "setting": "6 animals", "result": 6},
      {"measurement": "Liver: No significan changes, number of animals", "setting": "6 animals", "result": 0},
      {"measurement": "Right Kidney: No significant changes, number of animals", "setting": "6 animals", "result": 5},
      {"measurement": "Right Kidney: Tubular basophilia, number of animals", "setting": "6 animals", "result": 1},
      {"measurement": "Right Kidney: Tubular changes, number of animals", "setting": "6 animals", "result": 0},
      {"measurement": "Heart: No significant changes, number of animals", "setting": "tissue missing in two animals", "result": "1**"}
    ]}
  ]
}
